Measurements as given in patent publication EP0698347B1, “Food composition containing reuterin” (BIOGAIA BIOLOGICS AB, priority 1987, dated 1988).

Columns and labels:
E. coli [1] = test: Inhibition of E. coli by supernatant fractions of L. reuteri grown on various substrates (Table 2); type: cell-based; conditions: for % Inhibition: percent inhibition in viable count of 6.7 x 10^7 CFU per ml E. coli inoculum by supernatant fraction, substrate 40 mM; for Growth of E. coli presence of centrifuged culture medium CFU/ml after 6 hours: supernatant fraction of L. reuteri grown on the substrate at 40 mM, inoculum 6.7 x 10^7 CFU per ml E. coli
Method: (§1) Conditions under which reuterin is produced have been determined. Reuterin is not produced under aerobic conditions (atmospheric oxygen concentration) but under reduced oxygen tension. It is produced when L. reuteri is cultured anaerobically (or semi-anaerobically in still culture) in the MIC assay medium described above containing 20-500 mM glycerol or glyceraldehyde in place of glucose as the major carbon and energy source. […] Twenty other substances, including hexoses, hexitols, pentoses, pentitols, disaccharides and a variety of phosphorylated and non-phosphorylated C3-substances, were tested for their ability to support reuterin production. […] The medium, containing a substrate at 20 mM (C6 and C5 substrates) or 40 mM (C3 substrates) concentrations, was inoculated with 5 x 10^6 colony-forming units (CFU) per ml E. coli with and without L. reuteri. Only glycerol and glyceraldehyde yielded reuterin. Also, réuterin production from glycerol is inhibited when glucose or another growth substrate is included in the production medium. The results shown in Table 2 indicate the percent inhibition in viable count of a 6.7 x 10^7 CFU per ml E. coli inoculum by supernatant fractions of L. reuteri grown on various indicated substrates at 40 mM concentrations.

E. coli [2] = test: Co-culture of E. coli with and without L. reuteri 1063 on various substrates (Table 1); type: cell-based; design: % Inhibition: concentration or dose not given beside the values; conditions: for E. coli (CFU/ml) after 6 hours: substrate 20 mM (C6, C5) or 40 mM (C3), inoculum 5 x 10^6 CFU per ml E. coli; for % Inhibition: E. coli with versus without L. reuteri 1063 on the substrate, 6 hours
Method: as §1

[3] = Antimicrobial activity of pure commercial preparations; type: cell-based; conditions: concentrations as high as 0.125M
Source text: Reuterin Is a Product of Glycerol Fermentation. Reuterin is a new product associated with the same type of heterolactic fermentation of glycerol that occurs in other Lactobacillus species. Reuterin can be isolated and identified as a product of glycerol fermentation by L. reuteri using HPLC.

L. reuteri = test: Sensitivity of L. reuteri itself to reuterin; type: cell-based
Method: (§2) Antimicrobial Activity. Reuterin is a broad-spectrum antimicrobial agent. Reuterin functions as a bacteriocide. […] The indicated concentrations (CFU per ml) of E. coli (solid lines) and L. reuteri 1063 (dashed lines) were inoculated (zero time) into the glycerol casein hydrolysate medium described above (o), the same medium minus citrate (•) and the same medium minus glycerol (X). The co-cultures were incubated semi-anaerobically (still cultures) at 37 degrees C with samples removed at the indicated intervals to determine the numbers (CFU per ml) of E. coli and L. reuteri present. […] All Gram-negative bacterial genera tested thus far (Escherichia, Shigella, Salmonella, Proteus and Pseudomonas) and all Gram positive genera tested (Staphylococcus, Streptococcus, Clostridium, Bacillus, Leuconostoc and Lactobacillus) are sensitive to reuterin. Somewhat higher concentrations of reuterin are required, however, to kill representatives of the latter three genera. A lower eucaryote, the yeast Saccharomyces cerevisiae, is also killed by reuterin. Also shown in this table is the ability of various species tested to stimulate reuterin production by the heterologous procedure.

Lambda phage = test: Reuterin added to phage-infected bacterial cultures: virus PFUs (Figure 13); type: cell-based; conditions: 10 units of reuterin; four hours; compared to the reuterin-free control culture
Method: (§3) Antiviral Activity. Reuterin is also effective in preventing virus replication. […] It appears from preliminary results with ^14C-labeled glycerol that 4 ug of reuterin in 0.5 ml solution is about the equivalent of 1 unit of reuterin. After four hours, the number of colony-forming units (CFUs) of the host cell and the number of plaque-forming units (PFUs) of the viruses were assayed using standard microbiological techniques. With no reuterin added, the number of microbial cells had increased about 100-fold in the four-hour period. With E. coli, addition of 10 units of reuterin caused an approximate 100-fold decrease in the number of cells and more than a 1000-fold decrease in the number of PFUs of the lambda phage as compared to the reuterin-free control culture after incubation for four hours.

E. coli [4] = test: Bacteriocidal activity in E. coli / L. reuteri 1063 co-culture in glycerol medium (Figure 5); type: cell-based; conditions: glycerol present; co-culture with L. reuteri 1063, still culture, 37 degrees C; few hours after first 3-4 hours
Method: as §2

ground beef microflora = test: Food preservation: ground beef microflora (Figure 14); conditions: 50 and 100 units per g; stored at 4 degrees C; through the 6-day test period
Method: Reuterin is an effective food preservative. Ground beef purchased from a local supermarket was divided into 4 portions. One portion was untreated, the others were treated with 10, 50 and 100 units of reuterin per gram of the meat. All samples were stored at 4 degrees C with samples taken at indicated days for bacteriological analysis.
Beef samples were removed and diluted 1:10 (1 g beef: 9 ml sterile H2O). Subsequent decimal dilutions were made as needed and samples were plated onto Difco Nutrient Agar. These samples were incubated at 27°C for 24 hours and counted as colony forming units per gram ground beef (CFU/g). […] With the higher levels of reuterin (50 and 100 units per g) the indigenous population of bacteria was reduced and remained greater than 4 log units lower than the control sample through the 6-day test period.

E. coli K12 [5] = test: Minimum Inhibitory Concentration (MIC) procedure; type: cell-based; conditions: chemically synthesized as described by Hall, compared with biologically synthesized reuterin
Method: Reuterin. When Lactobacillus reuteri cells capable of producing reuterin are placed under certain favorable conditions, reuterin is produced. A number of assays have been developed to detect and quantitate reuterin. A standard Minimum Inhibitory Concentration (MIC) procedure was adopted to detect reuterin and to elucidate factors affecting its production. E. coli K12 is used as the susceptible test microorganism and the assay is carried-out as follows. Overnight cultures of E. coli are harvested, washed twice with sterile 0.05 sodium phosphate buffer (pH 7.5), suspended in this buffer and adjusted to 60 percent transmission (A 420 nm) using a Spectronic 70 instrument. This suspension is diluted 1:100 and 0.1 ml aliquots are used to inoculate 1.0 ml of the MIC assay medium which contains (g/L): vitamin-free casein hydrolysate, 3; ammonium citrate, 1.9; citric acid, 0.63; KH2PO4, 12.6; MgSO4 (hepta-hydrate), 0.2; pH adjusted to 7.0 and 20 mM glucose added after sterilization. […] Relative reuterin concentrations (units reuterin) are then calculated as the reciprocal of the sample dilution preceding the dilution allowing visible growth of the indicator cells. Another assay relating MIC values to reuterin peak heights as determined by HPLC analyses (described below) has also been developed.

[6] = system: Leuconostoc mesenteroides; test: Sensitivity to reuterin (Table 6); type: cell-based
Method: as §2

Clostridium sporogenes = test: Sensitivity to reuterin (Table 6); type: cell-based
Method: as §2

Saccharomyces cerevisiae = test: Sensitivity to reuterin (Table 6); type: cell-based
Method: as §2

Pediococcus cerevisiae = test: Sensitivity to reuterin (Table 6); type: cell-based
Method: as §2

Bacillus megaterium = test: Sensitivity to reuterin (Table 6); type: cell-based
Method: as §2

[7] = Characterizations of reuterin in crude preparations; type: physicochemical
Tryoanosoma cruzi = test: In vitro growth of the protozoan parasite; type: cell-based; conditions: final concentration of approximately 20 MIC units ml^-1
phage 8014-B2 = test: Reuterin added to phage-infected bacterial cultures: virus PFUs versus host CFUs (Figure 13); type: cell-based, Lactobacillus plantarum; conditions: reuterin amounts at or greater than 25 units; four hours
Method: as §3

E. coli K12 [8] = test: Food preservation: E. coli-inoculated ground beef (Figure 15); conditions: 75 units (U) of reuterin per gram of beef; 4°C; 9-day incubation period
Method: Ground beef purchased from a local supermarket was thoroughly inoculated and mixed with approximately 10^5CFU/ml of E. coli K12 cells. After mixing, the material was divided into 2 portions. One portion was an untreated control (no reuterin), the other portion received 75 units (U) of reuterin per gram of beef. Samples were stored at 4°C with portions removed at indicated times for bacteriological analysis. In this experiment the determination of viable cells (CFU/g beef) was conducted as described for Figure 14 except that Difco McConkey's Agar (relatively specific for coliform-like bacteria) was used.

Escherichia coli = test: Reuterin added to phage-infected bacterial cultures: host CFUs (Figure 13); type: cell-based; conditions: 10 units of reuterin; four hours; compared to the reuterin-free control culture
Method: as §3

| Compound | % Inhibition (E. coli [1]) [%] | Growth of E. coli presence of centrifuged culture medium CFU/ml after 6 hours (E. coli [1]) | E. coli (CFU/ml) after 6 hours (E. coli [2]; Addition of L. reuteri 1063: +) | E. coli (CFU/ml) after 6 hours (E. coli [2]; Addition of L. reuteri 1063: -) | % Inhibition (E. coli [2]) [%] | further results |
| --- | --- | --- | --- | --- | --- | --- |
| CC(=O)C(=O)O [Pyruvate] | 0 | 4.1x10^9 CFU/ml |  |  |  |  |
| O=C(CO)[C@@H](O)[C@H](O)[C@H](O)CO [Fructose] |  |  | 3.0x10^8 CFU/ml | 2.1x10^8 CFU/ml | 0 |  |
| O=CC(O)CO (stereo not shown) [Glyceraldehyde] | 98.9 | 6.1x10^5 CFU/ml | 3.2x10^4 CFU/ml | 2.8x10^6 CFU/ml | 99 |  |
| OC[C@@H](O)[C@@H](O)[C@H](O)[C@H](O)CO [Mannitol] |  |  | 2.7x10^8 CFU/ml | 2.3x10^8 CFU/ml | 0 |  |
| O=C(O)[C@H](O)[C@@H](O)[C@H](O)[C@H](O)CO [Gluconate] |  |  | 3.2x10^8 CFU/ml | 3.5x10^8 CFU/ml | 0 |  |
| C=C(OP(=O)(O)O)C(=O)O [Phosphoenolpyruvate] | 0 | 3.7x10^9 CFU/ml |  |  |  |  |
| OCCCO [1,3-propanediol] |  |  |  |  |  | antimicrobial activity [3]: essentially devoid of antimicrobial activity |
| O=P(O)(O)OC(CO)CO [β-Glycerol-P] | 0 | 3.2x10^9 CFU/ml | 6.5x10^6 CFU/ml | 5.1x10^6 CFU/ml | 0 |  |
| OC[C@@H](O)[C@@H](O)[C@H](O)[C@@H](O)CO [Sorbitol] |  |  | 1.9x10^8 CFU/ml | 2.1x10^8 CFU/ml | 0 |  |
| O=C(O)CCO [β-hydroxypropionic acid] |  |  |  |  |  | antimicrobial activity [3]: essentially devoid of antimicrobial activity |
| OCCC1OCCC(O)O1 (stereo not shown) [reuterin, 4-hydroxy-2-2'-hydroxyethyl-1:3-dioxan] |  |  |  |  |  | concentrations at which L. reuteri itself is sensitive to reuterin (L. reuteri): ≥ 32 MIC units; decrease in the number of PFUs of the lambda phage (Lambda phage): > 1000 fold; log decrease in viable E. coli cells (E. coli [4]): 7-8 log; indigenous population of bacteria lower than the control sample (ground beef microflora): greater than 4 log units; MIC value (E. coli K12 [5]): idential MIC value as the biologically synthesized reuterin; Sensitivity to reuterin [6]: S; Sensitivity to reuterin (Clostridium sporogenes): S; Sensitivity to reuterin (Saccharomyces cerevisiae): S; Sensitivity to reuterin (Pediococcus cerevisiae): S; Sensitivity to reuterin (Bacillus megaterium): S; stability to heat ([7]; 100 degrees C for 10 minutes, particularly at pH values of 9.0 or higher): labile to heat; resistance to nucleases and proteases ([7]; crude preparations): resistant to nucleases and proteases; solubility in water ([7]; crude preparations): highly soluble in water; in vitro growth of the protozoan parasite (Tryoanosoma cruzi): inhibits in vitro growth; Lactobacillus CFU and PFU decreases due to reuterin (phage 8014-B2): even greater declines in the PFUs than in the CFUs; viable cells (CFU/g beef) on McConkey's Agar (E. coli K12 [8]): reduced the initial population of bacteria and kept these numbers low; decrease in the number of cells (Escherichia coli): about 100 fold |
| O=C(CO)COP(=O)(O)O [Dihydroxyacetone-P] | 0 | 3.7x10^9 CFU/ml | 4.1x10^6 CFU/ml | 3.4x10^6 CFU/ml | 0 |  |
| OC[C@@H](O)[C@@H](O)[C@@H](O)CO [Ribitol] |  |  | 4.9x10^6 CFU/ml | 5.7x10^6 CFU/ml | 0 |  |
| Phosphoglycerate | 0 | 3.3x10^9 CFU/ml |  |  |  |  |
| O=C[C@H](O)[C@@H](O)[C@H](O)CO [Xylose] |  |  | 6.9x10^7 CFU/ml | 6.7x10^7 CFU/ml | 0 |  |
| OC[C@@H](O)C(O)[C@H](O)CO [Arabitol] |  |  | 2.9x10^6 CFU/ml | 2.7x10^6 CFU/ml | 0 |  |
